The results in this text go back to ChEMBL document CHEMBL4673390, “Discovery of Aminopyrazole Derivatives as Potent Inhibitors of Wild-Type and Gatekeeper Mutant FGFR2 and 3” (ACS Med Chem Lett, 2021).

Data set [1] in a line: in vitro. The conditions noted are these: human, Caco-2.
A short description of data set [2]: in vitro. To be noted: human, blood.
Data set [3] in a line: in vitro. To be noted: mouse, blood.
Data set [4] in a line: in vivo. To be noted: CD-1, mouse, po, 10 mg/kg.
Data set [5] is described as follows: in vivo. To be noted: CD-1, mouse, po, 10 mg/kg. The source holds these as a separate data set.
Data set [6] in a line: in vivo. The conditions noted are these: CD-1, mouse, po, 10 mg/kg. The source holds these as a separate data set.
A short description of data set [7]: in vivo. To be noted: CD-1, mouse, iv, 5 mg/kg.
A short description of data set [8]: in vivo. To be noted: CD-1, mouse, iv, 5 mg/kg. This is another data set of the same source.

A word on the Papp A→B: it is how fast a substance crosses the layer from the apical side. Read a high Papp A→B as fast passage. As a reminder, the half-life is the time in which the quantity being followed falls by half. In the data set “in vitro [1]”, `C=CC(=O)Nc1ccc(CCc2nc(Nc3cc(C)[nH]n3)cc(N3CCN(C)CC3)n2)cc1` registered a Papp A→B at 2 h of 0.3 ×10⁻⁶ cm/s. In addition, the half-life at 2 h, 2 µM amounted to 247 min in the data set “in vitro [2]” and 157 min in the data set “in vitro [3]”.

What is called AUC is the area under the concentration-time curve, a measure of exposure. The low end stands for low exposure, the high end for high exposure. As usually defined, the Cmax is the maximum level reached in the sampled fluid or tissue. What is called bioavailability is the share of a dose that reaches the circulation, judged against a reference dose that is usually intravenous. As a reminder, the Vd is a proportionality between amount in the body and measured concentration, not a real space. Read a low Vd as confinement near the circulation. The term clearance denotes the volume of plasma or blood freed of the substance per unit of time. A high value points to a high capacity for elimination. On to `C=CC(=O)Nc1ccc(/C=C/c2nc(Nc3cc(C(C)C)[nH]n3)cc(N3CCN(C)CC3)n2)cc1`, for which, in the data set “in vivo [4]”, the AUC at 24 h is 400 ng·h/mL. Further, the Papp A→B at 2 h in the data set “in vitro [1]” was found to be 0.1 ×10⁻⁶ cm/s. For the same molecule, the half-life at 2 h, 2 µM in the data set “in vitro [2]” came to 121 min; in “in vitro [3]” it was 114 min. For the same molecule, in “in vivo [5]”, the Cmax at 24 h came out at 103 ng/mL. Besides, in “in vivo [6]”, the bioavailability at 24 h was determined as 21%. Moreover, the Vd at 24 h in the data set “in vivo [7]” stood at 3.1 L/kg. This molecule had a clearance at 24 h in “in vivo [8]” of 86.3 mL/min/kg.

`C=CC(=O)N1CCC2(CCN(c3nc(Nc4cc(C(C)C)[nH]n4)cc(N4CCN(C)CC4)n3)CC2)C1` displayed a Papp A→B at 2 h in “in vitro [1]” of 0.2 ×10⁻⁶ cm/s. The half-life at 2 h, 2 µM was determined as 182 min in the data set “in vitro [2]” and 164 min in the data set “in vitro [3]”.
